From BindingDB's records for doi:10.1021/jm030528p (Encysive Pharmaceuticals, 2004)

Target: Endothelin-1 receptor (Homo sapiens) (UniProt P25101)
Assay: Displacement of [125I]ET-1 from Endothelin A receptor

Chain of Endothelin-1 receptor (Homo sapiens) (P25101 whole entry, looked up): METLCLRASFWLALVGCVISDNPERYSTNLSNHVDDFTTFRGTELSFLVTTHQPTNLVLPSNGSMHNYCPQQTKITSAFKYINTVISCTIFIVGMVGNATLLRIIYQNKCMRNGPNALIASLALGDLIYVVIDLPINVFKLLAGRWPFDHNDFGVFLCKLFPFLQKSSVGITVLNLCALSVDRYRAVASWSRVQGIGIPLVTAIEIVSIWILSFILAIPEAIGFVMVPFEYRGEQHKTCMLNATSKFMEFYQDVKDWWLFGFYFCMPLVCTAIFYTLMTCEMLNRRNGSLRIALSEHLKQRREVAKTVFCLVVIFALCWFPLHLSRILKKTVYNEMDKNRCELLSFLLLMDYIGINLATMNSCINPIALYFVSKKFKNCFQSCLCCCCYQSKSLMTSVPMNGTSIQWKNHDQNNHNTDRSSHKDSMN

- IC50: 0.02 nM
SMILES: Cc1cc(C)c(NC(=O)c2sccc2S(=O)(=O)Nc2onc(C)c2Cl)c(C(C)N=O)c1 (stereo unspecified) [3-(4-Chloro-3-methyl-isoxazol-5-ylsulfamoyl)-thiophene-2-carboxylic acid [2-(1-hydroxyimino-ethyl)-4,6-dimethyl-phenyl]-amide]
